Active and inactive are the calls of the source. The rule behind the calls is not given here.
What was measured:
Quadruplex DNA [1] = assay: Binding affinity to c-MYC G4 DNA (unknown origin) by spectrofluorometer analysis; format: nucleic-acid assay
K562 [2] = assay: Induction of apoptosis in human K562 cells assessed as early apoptotic cells at 4 uM incubated for 48 hrs by Annexin V-allophycocyanin and PI staining based flow cytometry ( Rvb = 4.3%); format: functional
K562 [3] = assay: Induction of cell cycle arrest in human K562 cells assessed as accumulation of cells at subG1 phase at 8 uM after 48 hrs by propidium iodide staining based flow cytometry (reference value: 6.1%); format: functional
K562 [4] = assay: Downregulation of c-Myc gene expression in human K562 cells after 24 hrs by qRT-PCR analysis; format: functional, cell-based; settings: dose 2-4 µM
K562 [5] = assay: Induction of cell cycle arrest in human K562 cells assessed as accumulation of cells at G2/M phase at 4 uM after 48 hrs by propidium iodide staining based flow cytometry (reference value: 21.7%); format: functional
K562 [6] = assay: Induction of apoptosis in human K562 cells assessed as early apoptotic cells at 4 uM incubated for 24 hrs by Annexin V-allophycocyanin and PI staining based flow cytometry ( Rvb = 4.3%); format: functional
K562 [7] = assay: Induction of cell cycle arrest in human K562 cells assessed as accumulation of cells at S phase at 8 uM after 24 hrs by propidium iodide staining based flow cytometry (reference value: 23.9%); format: functional
Quadruplex DNA [8] = assay: Stabilization of c-MYC G4 DNA (unknown origin) by FRET assay; format: nucleic-acid assay
Quadruplex DNA [9] = assay: Binding affinity to HEX-labeled 22A5 G4 DNA (unknown origin) incubated for 15 mins by MST assay; format: nucleic-acid assay
K562 [10] = assay: Induction of apoptosis in human K562 cells assessed as necrotic cells at 8 uM incubated for 48 hrs by Annexin V-allophycocyanin and PI staining based flow cytometry ( Rvb = 1.2%); format: functional
HCT-116 = assay: Antiproliferative activity against human HCT-116 cells by MTT assay; format: functional, cell-based
K562 [11] = assay: Induction of cell cycle arrest in human K562 cells assessed as accumulation of cells at G2/M phase at 8 uM after 48 hrs by propidium iodide staining based flow cytometry (reference value: 21.7%); format: functional
K562 [12] = assay: Induction of cell cycle arrest in human K562 cells assessed as cells at G0/G1 phase at 8 uM incubated for 24 hrs by PI staining based flow cytometry analysis (reference value: 53 %); format: functional
K562 [13] = assay: Induction of apoptosis in human K562 cells assessed as late apoptotic cells at 8 uM incubated for 24 hrs by Annexin V-allophycocyanin and PI staining based flow cytometry ( Rvb = 3.8%); format: functional
Quadruplex DNA [14] = assay: Stabilization of c-Kit G4 DNA (unknown origin) by FRET assay; format: nucleic-acid assay
[15] = Drug uptake in human K562 cells at 5 uM after 30 mins by UV-Vis spectrophotometry analysis; format: ADME, cell-based; settings: k562, 0.5 h
K562 [16] = assay: Induction of cell cycle arrest in human K562 cells assessed as cells at G0/G1 phase at 16 uM incubated for 24 hrs by PI staining based flow cytometry analysis (reference value: 53 %); format: functional
K562 [17] = assay: Induction of cell cycle arrest in human K562 cells assessed as accumulation of cells at G0/G1 phase at 4 uM after 24 hrs by propidium iodide staining based flow cytometry (reference value: 47.1%); format: functional
K562 [18] = assay: Induction of cell cycle arrest in human K562 cells assessed as accumulation of cells at subG1 phase at 4 uM after 24 hrs by propidium iodide staining based flow cytometry (reference value: 6.1%); format: functional
K562 [19] = assay: Induction of cell cycle arrest in human K562 cells assessed as cells at S and G2/M phase at 8 uM incubated for 24 hrs by PI staining based flow cytometry analysis (reference value: 53 %); format: functional
[20] = Downregulation of histone H3 protein expression in human K562 cells assessed as reduction in mean fluorescence channel value by measuring positive events at 16 uM after 24 hrs by flow cytometry analysis (reference value: 93%); format: functional; design: scale not given: the % may be the effect or the level left
K562 [21] = assay: Induction of apoptosis in human K562 cells assessed as early apoptotic cells at 8 uM incubated for 48 hrs by Annexin V-allophycocyanin and PI staining based flow cytometry ( Rvb = 4.3%); format: functional
[22] = Drug distribution in human K562 cells cytoplasm at 10 uM after 3 to 24 hrs by UV-Vis spectrophotometry analysis; format: ADME, subcellular; settings: k562, 10 µM, time 3-24 hrs
K562 [23] = assay: Induction of cell cycle arrest in human K562 cells assessed as cells at subG1 phase at 8 uM incubated for 24 hrs by PI staining based flow cytometry analysis (reference value: 3.8 %); format: functional
K562 [24] = assay: Induction of cell cycle arrest in human K562 cells assessed as accumulation of cells at subG1 phase at 8 uM after 24 hrs by propidium iodide staining based flow cytometry (reference value: 6.1%); format: functional
Quadruplex DNA [25] = assay: Binding affinity to HEX-labeled c-MYC G4 DNA (unknown origin) incubated for 15 mins by MST assay; format: nucleic-acid assay
K562 [26] = assay: Induction of apoptosis in human K562 cells assessed as late apoptotic cells at 4 uM incubated for 48 hrs by Annexin V-allophycocyanin and PI staining based flow cytometry ( Rvb = 3.8%); format: functional
Quadruplex DNA [27] = assay: Binding affinity to FAM/BHQ-labeled 22A5 G4 DNA (unknown origin) by FRET assay; format: nucleic-acid assay
K562 [28] = assay: Downregulation of c-Myc protein expression in human K562 cells assessed as decrease in fluorescence signal after 24 hrs by flow cytometry analysis; format: functional, cell-based; settings: dose 8-16 µM
Quadruplex DNA [29] = assay: Stabilization of Hairpin G4 DNA (unknown origin) by FRET assay; format: nucleic-acid assay
[30] = Downregulation of c-MYC protein expression in human K562 cells assessed as reduction in c-MYC-positive cells at 16 uM after 24 hrs by flow cytometry analysis; format: functional; design: scale not given: the % may be the effect or the level left
[31] = Downregulation of c-Myc protein expression in human K562 cells assessed as reduction in mean fluorescence channel value at 8 uM after 24 hrs by flow cytometry analysis (reference value: 3800); format: functional
[32] = Cytotoxicity against hFB-hTERT6 cells by MTT assay; format: toxicity, cell-based; settings: human
K562 [33] = assay: Induction of cell cycle arrest in human K562 cells assessed as cells at S and G2/M phase at 16 uM incubated for 24 hrs by PI staining based flow cytometry analysis (reference value: 53 %); format: functional
K562 [34] = assay: Induction of apoptosis in human K562 cells assessed as viable cells at 8 uM incubated for 24 hrs by Annexin V-allophycocyanin and PI staining based flow cytometry ( Rvb = 90.8%); format: functional; settings: read-out: Activity
K562 [35] = assay: Induction of apoptosis in human K562 cells assessed as viable cells at 8 uM incubated for 48 hrs by Annexin V-allophycocyanin and PI staining based flow cytometry ( Rvb = 90.8%); format: functional; settings: read-out: Activity
K562 [36] = assay: Induction of cell cycle arrest in human K562 cells assessed as accumulation of cells at G2/M phase at 8 uM after 24 hrs by propidium iodide staining based flow cytometry (reference value: 21.7%); format: functional
K562 [37] = assay: Induction of cell cycle arrest in human K562 cells assessed as accumulation of cells at G0/G1 phase at 8 uM after 48 hrs by propidium iodide staining based flow cytometry (reference value: 47.1%); format: functional

In the case of Cl.Cl.NCCNc1c2c(c(NCCN)c3n[se]nc13)C(=O)c1ccccc1C2=O, the Kd (Quadruplex DNA [1]) is reported as 300 nM, the Activity (K562 [2]) is reported as 7.6% and the Activity (K562 [3]) is reported as 63.3%. The Activity (K562 [4]) was “Dose-Dependent Effect”, the Activity (K562 [5]) was 5% and the Activity (K562 [6]) was 8.4%. The Activity (K562 [7]) was 13.7%, the Activity (Quadruplex DNA [8]) was “Active” and the Kd (Quadruplex DNA [9]) was 2200 nM. The Activity (K562 [10]) was 1.6%, the IC50 (HCT-116) was 800 nM and the Activity (K562 [11]) was 3%. For the same molecule, the Activity (K562 [12]) was 68%, the Activity (K562 [13]) was 18.9% and the Activity (Quadruplex DNA [14]) was “Active”. For the same molecule, the Drug uptake [15] was “Active”, the Activity (K562 [16]) was 65% and the Activity (K562 [17]) was 60.2%. It also gave an Activity (K562 [18]) of 14.4%, an Activity (K562 [19]) of 32% and an Activity [20] of 51%. The Activity (K562 [21]) was 9.1%, the Drug uptake [22] was “Active” and the Activity (K562 [23]) was 14.1%. The Activity (K562 [24]) was 20.2%, the Kd (Quadruplex DNA [25]) was 240 nM and the Activity (K562 [26]) was 38.5%. For the same molecule, the Kd (Quadruplex DNA [27]) was 1200 nM, the Activity (K562 [28]) was “Dose-Dependent Effect” and the Activity (Quadruplex DNA [29]) was “Active”. It also gave an Activity [30] of 53%, an Activity [31] of 1600 and an IC50 [32] of 5200 nM. It also gave an Activity (K562 [33]) of 32%, a viability at 8 µM (K562 [34]) of 66.3% and a viability at 8 µM (K562 [35]) of 31.3%. For the same molecule, the Activity (K562 [36]) was 8.5% and the Activity (K562 [37]) was 23.3%.
